Test results: patent US20220193301A1, “CELL SUSPENSION AND USE THEREOF” (AVITA Medical, Inc., priority 2012, published 2022)

System: Primary Epidermal Keratinocytes (PEK), Normal, Human, Adult
Experiment: In vitro Scratch Assay of keratinocytes (with and without mitomycin c)
Assay type: cell-based
Conditions: media/control group, no hydrogel
Description: 1. Maintain stock cultures of Primary Epidermal Keratinocytes (PEK), Normal, Human, Adult cells in Dermal Cell Basal Medium supplemented with Keratinocyte Growth Kit and Gentamicin-Amphotericin B Solution (Complete Medium). Subculture the stock cultures of cells to 2.5×10^4 cells/ml (estimate) and re-feed with complete medium every 2 days or when a density of near confluence is reached. 2. To each well of a 24 well plate add appropriate test substances. Row A, Columns 1-3: blank, no cells, medium only. Row B, Columns 1-3: baseline, cells only, no coating. Row C-D, Columns 1-3 and Rows A-D, Columns 4-6: test substances at determined previously, in a serial dilution series as necessary. 3. Harvest cells and wash the PEK cells in Media by centrifugation at 150×g for 3 to5 minutes. 4. Determine cell number and viability (by trypan blue exclusion), and suspend the cells to a final concentration of 5×10^4 cells/ml in Media. 5. Dispense 600 μl of the cell suspension (30,000 cells) into all wells of the plate prepared in Step 2. 6. […]
In vitro Scratch Assay was performed according to the above protocol. […] In vitro re-epithelialization was documented by photography, and the amount of migration was manually quantified by computer-assisted image analysis. The data was expressed as a percentage of the area of the scratch filled by keratinocytes (FIG. 7). […]

CO[C@@]12[C@H](COC(N)=O)C3=C(C(=O)C(C)=C(N)C3=O)N1C[C@@H]1N[C@@H]12 [MMC, mitomycin c]
healing of the scratch, MMC+ cells compared to MMC− cells: delayed healing
